In patent US20100063065A1 (Inpharmatica Limited, priority 2005, published 2010) one finds EC50 data, which are given here for 32 compounds.

By EC50 is commonly meant the concentration that produces a half-maximal response.

One assay concerns the target T1, PPARδ (Homo sapiens, UniProt Q03181).
T1 construct: fused to amino acids 147-441 of PPARδ downstream of CMV promoter; expressed in transfected cells; host or cells: HEK293 cells, transiently transfected with pFACMV-PPARδ using Fugene
T1 sequence (Q03181 147-441): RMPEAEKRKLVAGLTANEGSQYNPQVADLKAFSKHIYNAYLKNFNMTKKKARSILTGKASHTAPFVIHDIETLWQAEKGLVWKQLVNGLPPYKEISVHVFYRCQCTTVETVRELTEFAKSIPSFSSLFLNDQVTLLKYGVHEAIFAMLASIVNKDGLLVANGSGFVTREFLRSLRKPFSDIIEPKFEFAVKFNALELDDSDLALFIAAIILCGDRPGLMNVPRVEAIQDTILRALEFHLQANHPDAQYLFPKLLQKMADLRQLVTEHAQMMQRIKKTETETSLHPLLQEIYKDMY
The experiment in a line: Transactivation assay (PPARδ GAL4 assay) in transiently transfected HEK293 cells. The class given is cell-based. To be noted: luciferase reporter, Table 1. The method in brief: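 Luciferase luminescence after 24 h compound treatment (0-30 μM final, OptiMEM, 37° C./5% CO2) gave EC50 by sigmoidal fitting, with activity normalised to GW501516 as percent. Reporter system: transiently transfected HEK293 expressing GAL4 DNA-binding domain fused to human PPARδ aa 147-441, plus 5×GAL4-driven luciferase.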
(In general: A reporter such as luciferase makes a cellular process visible.)
For the compound `CCc1cc(C(=O)c2ccc(-c3ccc(OC(F)(F)F)cc3)cc2)c(NC(=O)CSCC(=O)O)s1` [Example 39, {[5-Ethyl-3-(4′-trifluoromethoxy-biphenyl-4-carbonyl)-thiophen-2-ylcarbamoyl]-methylsulfanyl}-acetic acid], the EC50 was below 100 nM.
Turning to `CCc1cc(C(=O)c2ccc(C(F)(F)F)nc2)c(NC(=O)CSCC(=O)O)s1` [Example 57, {[5-Ethyl-3-(6-trifluoromethyl-pyridine-3-carbonyl)-thiophen-2-ylcarbamoyl]-methylsulfanyl}-acetic acid], the EC50 fell in the range of 1000 to 30000 nM.
Compound `CCc1cc(C(=O)c2ccc(OC)cc2)c(NC(=O)CCCC(=O)O)s1` [Example 7, 4-[5-Ethyl-3-(4-methoxy-benzoyl)-thiophen-2-ylcarbamoyl]-butyric acid] returned an EC50 of 1000 to 30000 nM.
In turn, `CCc1cc(C(=O)c2ccc(OC(F)(F)F)cc2)c(NC(=O)CSc2ccc(CCC(=O)O)cc2)s1` [Example 96, 3-(4-{[5-Ethyl-3-(4-trifluoromethoxy-benzoyl)-thiophen-2-ylcarbamoyl]-methylsulfanyl}-phenyl)-propionic acid] came in with a half-maximal effective concentration (EC50) of 100 to 1000 nM.
With `CCc1cc(C(=O)c2ccc(Cl)cc2)c(NC(=O)CSCC(=O)O)s1` [Example 23, {[3-(4-Chloro-benzoyl)-5-ethyl-thiophen-2-ylcarbamoyl]-methylsulfanyl}-acetic acid], the concentration giving a half-maximal response (EC50) lay within 100 to 1000 nM.
`CCc1cc(C(=O)c2ccc(OC(F)(F)F)cc2)c(NC(=O)CSc2ccc(OCC(=O)O)cc2)s1` [Example 93] gave a concentration giving a half-maximal response (EC50) of 100 to 1000 nM.
For the compound `CCc1cc(C(=O)c2ccc(Cl)cc2)c(NC(=O)C(C)N(C)CC(=O)O)s1` (centres unmarked) [Example 87, ({1-[3-(4-Chloro-benzoyl)-5-ethyl-thiophen-2-ylcarbamoyl]-ethyl}-methyl-amino)-acetic acid], the concentration for a half-maximal effect (EC50) fell in the range of 100 to 1000 nM.
The compound `CCc1cc(C(=O)c2ccc(OC(F)(F)F)cc2)c(NC(=O)CNCC(=O)O)s1` [Example 81, ({[5-Ethyl-3-(4-trifluoromethoxy-benzoyl)-thiophen-2-ylcarbamoyl]-methyl}-amino)-acetic acid] showed an EC50 of 100 to 1000 nM.
Take `CCc1cc(C(=O)c2ccc(C(F)(F)F)cc2)c(NC(=O)CSCC(=O)O)s1` [Example 45, {[5-Ethyl-3-(4-trifluoromethylbenzoyl)-thiophen-2-ylcarbamoyl]-methylsulfanyl}-acetic acid]: the EC50 was below 100 nM.
`CCc1cc(C(=O)c2ccc(OC(C)C)nc2)c(NC(=O)CSCC(=O)O)s1` [Example 58, {[5-Ethyl-3-(6-isopropoxy-pyridine-3-carbonyl)-thiophen-2-ylcarbamoyl]-methylsulfanyl}-acetic acid]: the EC50 lay within 100 to 1000 nM.
`CCc1cc(C(=O)c2ccc(-c3cnn(C)c3)cc2)c(NC(=O)CSCC(=O)O)s1` [Example 42, ({5-Ethyl-3-[4-(1-methyl-1H-pyrazol-4-yl)-benzoyl]-thiophen-2-ylcarbamoyl}-methylsulfanyl)-acetic acid] displayed a concentration for a half-maximal effect (EC50) of 1000 to 30000 nM.
As to `CCc1cc(C(=O)c2ccc(OC)cc2)c(NC(=O)CSc2ccc(OCC(=O)O)c(C)c2)s1` [Example 91, (4-{[5-Ethyl-3-(4-methoxy-benzoyl)-thiophen-2-ylcarbamoyl]-methylsulfanyl}-2-methyl-phenoxy)-acetic acid], the EC50 was 1000 to 30000 nM.
Same read-out and setting: under `CCc1cc(C(=O)c2ccc(OC)cc2)c(NC(=O)CSc2ccc(OCC(=O)O)cc2)s1` [Example 89, (4-{[5-Ethyl-3-(4-methoxy-benzoyl)-thiophen-2-ylcarbamoyl]-methylsulfanyl}-phenoxy)-acetic acid] stands 1000 to 30000 nM.
`CCc1cc(C(=O)c2ccc(OC)cc2)c(NC(=O)CSc2ccc(OC(C)(C)C(=O)O)cc2)s1` [Example 92, 2-(4-{[5-Ethyl-3-(4-methoxy-benzoyl)-thiophen-2-ylcarbamoyl]-methylsulfanyl}-phenoxy)-2-methyl-propionic acid] gave an EC50 of 100 to 1000 nM.
The compound `COc1ccc(C(=O)c2cc(C)sc2NC(=O)CSCC(=O)O)cc1` [Example 61, {[3-(4-Methoxy-benzoyl)-5-methyl-thiophen-2-ylcarbamoyl]-methylsulfanyl}-acetic acid] registered an EC50 of 1000 to 30000 nM.
Same read-out and setting: under `CCc1cc(C(=O)c2cccc(-c3ccc(F)cc3)c2)c(NC(=O)CNC(C)(C)C(=O)O)s1` [Example 85, 2-({[5-Ethyl-3-(4′-fluoro-biphenyl-3-carbonyl)-thiophen-2-ylcarbamoyl]-methyl}-amino)-2-methyl-propionic acid] stands 100 to 1000 nM; under `CCc1cc(C(=O)c2ccc(F)cc2)c(NC(=O)CSCC(=O)O)s1` [Example 18, {[5-Ethyl-3-(4-fluoro-benzoyl)-thiophen-2-ylcarbamoyl]-methylsulfanyl}-acetic acid], 1000 to 30000 nM; under `CCc1cc(C(=O)c2ccc(OC)cc2)c(NC(=O)CSc2cccc(C(=O)O)c2)s1` [Example 90, 3-{[5-Ethyl-3-(4-methoxy-benzoyl)-thiophen-2-ylcarbamoyl]-methylsulfanyl}-benzoic acid], 1000 to 30000 nM.

Still in this assay, the particulars now being: luciferase reporter, Table 2.
For `CCc1cc(C(=O)c2ccc(OC(F)(F)F)cc2)c(NC(=O)C(C)(C)SC(C)C(=O)O)s1` (centres unmarked) [Example 108, 2-{1-[5-Ethyl-3-(4-trifluoromethoxy-benzoyl)-thiophen-2-ylcarbamoyl]-1-methyl-ethylsulfanyl}-propionic acid], the 50% effective concentration (EC50) is below 100 nM.
Turning to `CCc1cc(C(=O)c2ccc(OC(F)(F)F)cc2)c(NC(=O)CN2[C@H](C)CC[C@@H]2C(=O)O)s1` (relative stereo) [Example 178, (2R*,5R*)-1-{[5-Ethyl-3-(4-trifluoromethoxy-benzoyl)-thiophen-2-ylcarbamoyl]-methyl}-5-methyl-pyrrolidine-2-carboxylic acid], the concentration giving a half-maximal response (EC50) lay within 1000 to 30000 nM.
The same measure, in the same setting: under `CCc1cc(C(=O)c2ccc(OC(F)(F)F)cc2)c(NC(=O)C2CCCN(CC(=O)O)C2)s1` (centres unmarked) [Example 176, {3-[5-Ethyl-3-(4-trifluoromethoxy-benzoyl)-thiophen-2-ylcarbamoyl]-piperidin-1-yl}-acetic acid] stands 1000 to 30000 nM; under `CCc1cc(C(=O)c2ccc(OC(F)(F)F)cc2)c(NC(=O)c2ccc(NCC(=O)O)cc2)s1` [Example 115, {4-[5-Ethyl-3-(4-trifluoromethoxy-benzoyl)-thiophen-2-ylcarbamoyl]-phenylamino}-acetic acid], 100 to 1000 nM; under `CCc1cc(C(=O)c2ccc(F)cc2)c(NC(=O)CSc2ccc(OC(C)(C)C(=O)O)cc2)s1` [Example 137, 2-(4-{[5-Ethyl-3-(4-fluoro-benzoyl)-thiophen-2-ylcarbamoyl]-methylsulfanyl}-phenoxy)-2-methyl-propionic acid], 100 to 1000 nM.
Same read-out and setting: under `CCc1cc(C(=O)c2ccc(-c3ccccn3)cc2)c(NC(=O)CSCC(=O)O)s1` [Example 145, {[5-Ethyl-3-(4-pyridin-2-yl-benzoyl)-thiophen-2-ylcarbamoyl]-methylsulfanyl}-acetic acid] stands 100 to 1000 nM.
For `CCc1cc(C(=O)c2ccc3cc(Cl)ccc3n2)c(NC(=O)CSCC(=O)O)s1` [Example 156, {[3-(6-Chloro-quinoline-2-carbonyl)-5-ethyl-thiophen-2-ylcarbamoyl]-methylsulfanyl}-acetic acid], the EC50 lay within 100 to 1000 nM.
As to `CCc1cc(C(=O)c2ccc(OC(F)(F)F)cc2)c(NC(=O)CS[C@@H](C)C(=O)O)s1` [Example 129, (S)-2-{[5-Ethyl-3-(4-trifluoromethoxy-benzoyl)-thiophen-2-ylcarbamoyl]-methylsulfanyl}-propionic acid], the 50% effective concentration (EC50) is below 100 nM.
`CCc1cc(C(=O)c2ccc(OC(F)(F)F)cc2)c(NC(=O)CN[C@@H](C)C(=O)O)s1` [Example 160, (S)-2-({[5-Ethyl-3-(4-trifluoromethoxy-benzoyl)-thiophen-2-ylcarbamoyl]-methyl}-amino)-propionic acid] gave a half-maximal effective concentration (EC50) of 100 to 1000 nM.
Still for that read-out and setting: next, `CCc1cc(C(=O)c2ccc(OC(F)(F)F)cc2)c(NC(=O)CSC(C)C(=O)O)s1` (centres unmarked) [Example 112, 2-{[5-Ethyl-3-(4-trifluoromethoxy-benzoyl)-thiophen-2-ylcarbamoyl]-methylsulfanyl}-propionic acid]: below 100 nM.
Regarding `CCc1cc(C(=O)c2ccc(OC(F)(F)F)cc2)c(NC(=O)CN[C@H](C)C(=O)O)s1` [Example 161, (R)-2-({[5-Ethyl-3-(4-trifluoromethoxy-benzoyl)-thiophen-2-ylcarbamoyl]-methyl}-amino)-propionic acid], the 50% effective concentration (EC50) is 100 to 1000 nM.
The compound `CCc1cc(C(=O)c2nc3ccc(OC(F)(F)F)cc3s2)c(NC(=O)CSCC(=O)O)s1` [Example 153, {[5-Ethyl-3-(6-trifluoromethoxy-benzothiazole-2-carbonyl)-thiophen-2-ylcarbamoyl]-methylsulfanyl}-acetic acid] came in with a 50% effective concentration (EC50) of 100 to 1000 nM.
Consider `CCc1cc(C(=O)c2ccc(OC(F)(F)F)cc2)c(NC(=O)CN2[C@@H](CC)CC[C@@H]2C(=O)O)s1` [Example 183, (2R,5S)-5-Ethyl-1-{[5-ethyl-3-(4-trifluoromethoxy-benzoyl)-thiophen-2-ylcarbamoyl]-methyl}-pyrrolidine-2-carboxylic acid], for which the EC50 is below 100 nM.
The compound `CCc1cc(C(=O)c2ccc(Cl)cc2)c(NC(=O)CCC(C)(C)C(=O)O)s1` [Example 147, 4-[3-(4-Chloro-benzoyl)-5-ethyl-thiophen-2-ylcarbamoyl]-2,2-dimethyl-butyric acid] had an EC50 of 100 to 1000 nM.
